Laboratory results as given in article PMC12636382, “Human and zebrafish mineralocorticoid receptors reporter cell assays to assess the activity of chemicals” (iScience, 2025).
Values joined by “and” are separate entries in the source; they are usually repeats but may differ in a detail not shown here. Equal values may be shown once. Read-outs that look alike come from different tables or passages of the source.

Key:
zebrafish MR (zfMR) = zebrafish MR (zfMR) (Danio rerio, UniProt A6YIH7); test: UG5LN-GAL4-zfMR luciferase reporter cell assay (agonism and antagonism tests); type: cell-based; details: for EC50: agonism test, chemical alone, mean of at least three experiments, read-out: EC50
Experimental: (§1) The U2OS cells used to establish the MR reporter cell lines were obtained from and verified by ECACC (UK Health Security Agency, Porton Down, Salisbury, UK). The strategy used has been described previously to establish other NR-based cell lines.[42] First, the different pSG5-GAL4(DBD)-MRs (LBD) and (GAL4RE)5βGlob-Luc-SVNeo plasmids were tested by transient transfections in U2OS. Then, the UG5LN-GAL4-hMR and UG5LN-GAL4-zfMR clonal cells were generated in two steps. The first step was to establish clonal UG5LN cells by a stable transfection of U2OS cells, considered as steroid receptor negative, with the plasmid (GAL4RE)5βGlob-Luc-SVNeo. The second step consisted of the transfection of UG5LN cells with the plasmids pSG5-GAL4(DBD)-hMR(LBD)-puro, pSG5-GAL4(DBD)-hMRT870L(LBD)-puro or pSG5-GAL4(DBD)-zfMR(LBD)-puro, to generate UG5LN-GAL4-hMR, UG5LN-GAL4-hMRT870L and UG5LN-GAL4-zfMR clonal cells, respectively. Stable cell clones were selected in the presence of puromycin 0.5 μg/mL and G418 1 mg/mL. For each receptor, 5 to 10 clones were chosen for their ligand-induced luciferase expression. The clones were amplified and luciferase expression was checked at several passages. For each receptor, the clone with the best induction of luciferase activity was selected and used for the screening of the different chemicals. The stability and the inducibility of luciferase expression were checked during at least 20 passages (20 weeks).
(§2) To perform the reporter gene assay, cells were seeded in 96-wells white transparent culture plates (Greiner bio-one 655098CellStar; Dutscher, Brumath, France) at a density of 60,000 cells per well in 150 μL of culture medium and incubated at 37°C and 5% CO2 for 24 h. Then, after the attachment period, medium was removed and cells were exposed to increasing dilutions of the tested compounds in the experimental medium (DMSO; final concentration 0.1% v/v for chemicals and 0.3% v/v for water sample extracts) and incubated at 37°C and 5% CO2. After 24 h, medium was removed and replaced with 50 μL/well of experimental medium containing 0.3 mM luciferin. The luminescence signal was monitored in intact live cells for 2 s per well using a MicroBeta Wallac luminometer (PerkinElmer, Courtaboeuf, France). All experiments were performed in quadruplicate.
(§3) The quantification and statistical analysis are integral parts of the software used (GraphPad Prism 10, GraphPad Software Inc). The compounds were tested at different concentrations in at least three independent experiments. In each experiment, the compounds were tested in quadruplicate for each concentration, and the data were expressed as averages of the quadruplicates with their standard deviation to obtain a single value for that experimental series. Then, individual dose-response curves for each chemical were fitted from the averages of the three individual experiments using the sigmoidal dose-response function of the graphics and statistics software program GraphPad. Specifically, GraphPad employs nonlinear regression with the least squares method to fit the data to a sigmoidal function (based on the Hill equation). This method is used to determine the optimal parameter values, such as the Half Maximal Effective concentration (EC50) for agonist and the Half Maximal Inhibitory Concentration (IC50) for antagonist. […] Once the best-fit curve was obtained, the confidence intervals (e.g., 95% CI) for these parameters were estimated based on the uncertainty (variance) derived from the regression model, and the lower and upper 95% confidence limits of EC50s and IC50s were reported.

human MR (hMR) = molecular target: T1, human MR (hMR) (Homo sapiens, UniProt P08235); test: UG5LN-GAL4-hMR luciferase reporter cell assay (agonism and antagonism tests); type: cell-based; details: for % min act: % of maximal luciferase activity induced by 10^−8 M aldosterone
T1 construct: hMR(LBD) (G671-K894) and zfMR(LBD) (L668-K970) have been amplified by PCR; expressed in transfected cells
T1 sequence (P08235 671-984 limits assumed): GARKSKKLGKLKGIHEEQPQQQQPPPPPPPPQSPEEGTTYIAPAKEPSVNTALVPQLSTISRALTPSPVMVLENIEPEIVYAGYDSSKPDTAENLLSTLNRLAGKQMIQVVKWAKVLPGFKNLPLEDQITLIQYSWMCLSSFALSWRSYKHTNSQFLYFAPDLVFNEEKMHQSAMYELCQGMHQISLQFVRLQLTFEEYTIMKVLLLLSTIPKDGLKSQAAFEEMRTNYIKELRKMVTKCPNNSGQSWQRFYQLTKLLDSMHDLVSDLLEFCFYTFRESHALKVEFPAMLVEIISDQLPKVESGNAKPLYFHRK
Experimental: as §1, §2, §3

[1] = environmental chemicals, antagonism test with aldosterone 0.5 10^−9 M, UG5LN-GAL4-zfMR, read-out: IC50
[2] = environmental chemicals, antagonism test with aldosterone 10^−9 M, UG5LN-GAL4-hMR, read-out: IC50
[3] = environmental chemicals at 10^−5 M, antagonism test
[4] = antagonism test, in presence of aldosterone 0.5 10^−9 M, UG5LN-GAL4-zfMR cells, read-out: IC50
[5] = in words, UG5LN-GAL4-zfMR cells
[6] = antagonism test, in presence of aldosterone 10^−9 M, UG5LN-GAL4-hMR cells, read-out: IC50
[7] = antagonism test with aldosterone 10^−9 M, at 10^−5, 10^−6 or 10^−7 M depending on chemical

zebrafish MR (zfMR), sequence (A6YIH7 entry or part of it): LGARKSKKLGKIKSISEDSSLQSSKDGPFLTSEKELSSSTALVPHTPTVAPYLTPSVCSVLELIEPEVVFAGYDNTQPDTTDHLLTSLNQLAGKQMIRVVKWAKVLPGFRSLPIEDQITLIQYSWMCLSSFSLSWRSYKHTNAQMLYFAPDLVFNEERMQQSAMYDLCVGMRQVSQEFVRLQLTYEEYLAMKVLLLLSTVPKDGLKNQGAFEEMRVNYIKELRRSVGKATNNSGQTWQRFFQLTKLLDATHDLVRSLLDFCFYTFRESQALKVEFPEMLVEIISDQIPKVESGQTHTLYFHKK

| Compound | IC50 (zebrafish MR (zfMR); [1]) [nM] | IC50 (human MR (hMR); [2]) [nM] | % min act (zebrafish MR (zfMR)) [%] | % min act (human MR (hMR); [3]) [%] | activity profile on zfMR (agonist / partial agonist / antagonist) (zebrafish MR (zfMR); [5]) | further results |
| --- | --- | --- | --- | --- | --- | --- |
| O=S1OCC2C(CO1)C1(Cl)C(Cl)=C(Cl)C2(Cl)C1(Cl)Cl (stereo not shown) [endosulfan] | 8400 | 1010 | – | – | – | – |
| ClC1=C(Cl)[C@]2(Cl)[C@H]3[C@H]([C@H](Cl)C(Cl)[C@@H]3Cl)[C@@]1(Cl)C2(Cl)Cl (stereo partly shown) [transnonachlore] | – | 610 | 57.8 ± 9 | 10 ± 0.9 | – | – |
| Nonylphenol mixture | 9200 | 1560 | 40.7 ± 4.8 | 12 ± 2.5 | – | – |
| ClC(Cl)=C(c1ccc(Cl)cc1)c1ccccc1Cl [2,4′-DDE, 2,4′DDE] | 6900 | 470 | 34.8 ± 6.6 | 8.3 ± 1.2 | – | – |
| C[C@]12CCC(=O)C=C1C=C[C@@H]1[C@@H]2CC[C@@]2(C)[C@H]1CC[C@@]21CCC(=O)O1 [canrenone] | – | – | – | – | full antagonists | IC50 (zebrafish MR (zfMR); [4]): 18 nM and 18.4 nM; IC50 (human MR (hMR); [6]): 17 nM and 16.7 nM; activity profile on hMR (agonist / partial agonist / antagonist) (human MR (hMR); in words, UG5LN-GAL4-hMR cells): full antagonists |
| O=C1C2(Cl)C3(Cl)C4(Cl)C(Cl)(Cl)C5(Cl)C3(Cl)C1(Cl)C5(Cl)C24Cl (stereo not shown) [chlordecone] | 5590 | 1210 | 28.6 ± 0.3 | 8.4 ± 1 | – | – |
| 17α-hydroxyprogesterone [17α-hydroxy progesterone] | – | – | – | – | full agonists | % max act (zebrafish MR (zfMR)): 97.6 ± 1.2%; EC50 (zebrafish MR (zfMR); UG5LN-GAL4-zfMR cells, listed as 17-α-hydroxy progesterone): 0.24 nM; EC50 (zebrafish MR (zfMR); UG5LN-GAL4-zfMR cells, listed as 17α-hydroxyprogesterone): 0.2 nM |
| C[C@]12CCC(=O)C=C1CC[C@@H]1[C@@H]2CC[C@@]2(C)[C@H]1CC[C@]2(O)C(=O)CO [11-deoxycortisol] | – | – | – | – | partially activate | EC50 (zebrafish MR (zfMR); UG5LN-GAL4-zfMR cells): 0.73 nM; REP (relative potency) (zebrafish MR (zfMR); ratio of EC50 values aldosterone/chemical, aldosterone set at 1): 0.41; IC50 (human MR (hMR); [6]): 4.4 nM and 4.41 nM; activity profile on hMR (agonist / partial agonist / antagonist) (human MR (hMR); in words, UG5LN-GAL4-hMR cells): complete antagonists |
| dihydroprogesterone | – | – | 5 ± 0.5 | – | full antagonists | IC50 (zebrafish MR (zfMR); [4]): 186 nM; % min act (human MR (hMR); [7]): 11 ± 2%; IC50 (human MR (hMR); [6]): 395 nM; activity profile on hMR (agonist / partial agonist / antagonist) (human MR (hMR); in words, UG5LN-GAL4-hMR cells): full antagonists |
| CC(=O)[C@H]1CC[C@H]2[C@@H]3CCC4=CC(=O)CC[C@]4(C)[C@H]3CC[C@]12C [progesterone] | – | – | – | – | partially activate | – |
| ClC1=C(Cl)C2(Cl)C3C4C=CC(C4)C3C1(Cl)C2(Cl)Cl (stereo not shown) [aldrin] | 2170 | 390 | – | – | – | – |
| CC(=O)[C@H]1CC[C@H]2[C@@H]3CC=C4C[C@@H](O)CC[C@]4(C)[C@H]3CC[C@]12C [pregnenolone] | – | – | 4.1 ± 0.2 | – | full antagonists | IC50 (zebrafish MR (zfMR); [4]): 166 nM; % min act (human MR (hMR); [7]): 6.0 ± 1%; IC50 (human MR (hMR); [6]): 68 nM and 67.7 nM; activity profile on hMR (agonist / partial agonist / antagonist) (human MR (hMR); in words, UG5LN-GAL4-hMR cells): full antagonists |
| Oc1ccc(C(c2ccc(O)cc2)C(Cl)(Cl)Cl)cc1 [HPTE] | 11100 | 2060 | 51 ± 6.8 | 12.3 ± 1.5 | – | – |
| CC#C[C@]1(O)CC[C@H]2[C@@H]3CCC4=CC(=O)CCC4=C3[C@@H](c3ccc(N(C)C)cc3)C[C@@]21C [mifepristone] | – | – | – | – | full antagonists | IC50 (zebrafish MR (zfMR); [4]): 1050 nM; activity profile on hMR (agonist / partial agonist / antagonist) (human MR (hMR); in words, UG5LN-GAL4-hMR cells): full antagonists |
| C[C@]12CCC(=O)C[C@@H]1CC[C@@H]1[C@@H]2CC[C@]2(C)[C@@H](O)CC[C@@H]12 [dihydrotestosterone] | – | – | – | – | – | activity profile on zfMR (agonist / partial agonist / antagonist) (zebrafish MR (zfMR)): full antagonists; IC50 (zebrafish MR (zfMR); IC50): 35 nM and 34.9 nM; activity profile on hMR (agonist / partial agonist / antagonist) (human MR (hMR)): full antagonists; IC50 (human MR (hMR); IC50): 60 nM |
| CC(C)(c1ccc(O)cc1)c1ccc(O)c(Cl)c1 [2-chloro-bisphenol A] | 4300 | 1360 | – | 12 ± 8.7 | – | % min act (zebrafish MR (zfMR); environmental chemicals at 10^−5 M, antagonism test, % of maximal luciferase activity induced by 10^−8 M aldosterone): 13.2 ± 1.3% |
| CCC(=O)[C@@]1(C)CC[C@H]2[C@@H]3CCC4=CC(=O)CCC4=C3CC[C@@]21C [promegestone] | – | – | – | – | full antagonists | IC50 (zebrafish MR (zfMR); [4]): 291 nM; IC50 (human MR (hMR); [6]): 169 nM; activity profile on hMR (agonist / partial agonist / antagonist) (human MR (hMR); in words, UG5LN-GAL4-hMR cells): full antagonists |
| CC(C)(C)CC(C)(C)c1ccc(O)cc1 [4-tert-octylphenol] | 15800 | 2120 | – | – | – | – |
| CC(C)(c1ccc(O)cc1)c1ccc(O)cc1 [bisphenol A, Bisphenol A] | 5150 | 2280 | – | – | – | – |
| Bisphenol C | 11800 | 13200 | – | 51 ± 6 | – | – |
| C=CC(C)(O)C(=O)Nc1cc(Cl)cc(Cl)c1 (stereo not shown) [vinclozoline M2, Vinclozolin M2] | 7000 | 5960 | 31 ± 0.5 | 28 ± 3.3 | – | – |
| CCCOCCN(C(=O)CCl)c1c(CC)cccc1CC [pretilachlore] | 4710 | 3510 | 21 ± 0.7 | 21.5 ± 1.7 | – | – |
